The values below come from patent US20170290774A1, “NEUROKININ-1 RECEPTOR ANTAGONIST COMPOSITION FOR TREATMENT OF DISEASES AND CONDITIONS OF THE RESPIRATORY TRACT” (PLUS VITECH, S.L., priority 2014, published 2017).

Common to all, as to assay type: physicochemical
Common to all, as to details: 25° C.

A short description of series [1]: Saturation concentration of NK1 receptor antagonists in olive oil. The protocol: Each of said mixtures was continuously and gently stirred for 10 minutes at ambient temperature (25° C.) and then maintained at rest for 60 minutes. The saturation concentration was considered to be that which was immediately lower in the aforementioned series than a concentration where deposition was observed, but in which no deposition of the active ingredient was observed.

Series [2] in a line: Saturation concentration in olive oil:ethanol (9:1). The protocol:
(§1) Each of said mixtures was continuously and gently stirred for 10 minutes at ambient temperature (25° C.) and then maintained at rest for 60 minutes. The saturation concentration was considered to be that which was immediately less than a concentration where deposition was observed, but in which no deposition of the active ingredient was observed.

Series [3] in a line: Saturation concentration in different oils (soy, sunflower, rapeseed). The protocol:
as §1

Turning to `CC(=O)N1CCN([C@H]2CCN(C(=O)N(C)[C@H](C)c3cc(C(F)(F)F)cc(C(F)(F)F)c3)[C@@H](c3ccc(F)cc3C)C2)CC1` [Casopitant], the Saturation concentration in series [1] was 40 nM; in series [2], 65 nM; in series [3] (Rapeseed oil) it was 70 nM; in series [3] (Soy oil), 60 nM; in series [3] (Sunflower oil), 60 nM.

Regarding `CC(=O)N[C@@H](Cc1c[nH]c2ccccc12)C(=O)OCc1cc(C(F)(F)F)cc(C(F)(F)F)c1` [L-732,138], the Saturation concentration in series [1] was 80 nM; in series [2], 100 nM; in series [3] (Rapeseed oil), 90 nM; in series [3] (Soy oil), 90 nM; in series [3] (Sunflower oil), 80 nM.
